In article PMC3540140 (Journal of molecular biology, 2012):

Tests used:
[1] = biological target: JNK1 (Homo sapiens, UniProt P45983); experiment: IMAP-based FP kinase assay; format: biochemical
[2] = biological target: C-terminal truncated form of human JNK1α1 (residues 1–364) (human, UniProt P45983-2 1-364); experiment: crystal structure
Sequence of C-terminal truncated form of human JNK1α1 (residues 1–364) (P45983 1-364): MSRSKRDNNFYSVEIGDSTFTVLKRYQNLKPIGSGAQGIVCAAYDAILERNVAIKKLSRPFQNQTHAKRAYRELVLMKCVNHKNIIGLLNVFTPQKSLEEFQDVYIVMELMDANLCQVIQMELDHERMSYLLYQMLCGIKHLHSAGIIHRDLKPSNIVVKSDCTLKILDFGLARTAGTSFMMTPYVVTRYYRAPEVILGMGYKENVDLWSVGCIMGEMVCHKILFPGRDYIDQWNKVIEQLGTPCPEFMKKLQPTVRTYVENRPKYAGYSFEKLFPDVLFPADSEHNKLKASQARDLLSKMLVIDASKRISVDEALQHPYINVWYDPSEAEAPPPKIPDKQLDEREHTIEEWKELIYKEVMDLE

## RPKRPTTLNLF [peptide fragment of JIP1 (pepJIP1)]
[2]
  binding result: binds
